Test results from US5919464A, “Treatment of aberrant cellular states with biomodulators” (University of New Mexico, priority 1993, dated 1999).
Entries after “also recorded” stand apart in the source; their conditions may differ.

How the values were obtained:
[1] = biomodulator assay (general); settings: in words
Excerpt: All biomodulators will have at least the following effects, which can be measured as indicated above:
a. Biomodulators cause, at a concentration in the general range of 100 pM-1 μm, the differentiation of lymphocytes. This differentiation can be detected by, for example, the increased production of specific and non-specific antibodies in response to the presence of biomodulator in the culture medium, e.g., according to the HPBL method discussed above in C, or the alteration in the class of antibodies being produced by a cell line, e.g., from IgM to IgG, e.g., according to the method disclosed in the same reference.
b. Biomodulators cause, at a concentration in the general range of 100 pM-1 μm, the alteration of the cell surface oligosaccharide display of IMR-90 cells in culture as discussed in A. above.
Activity in both of these assays is a necessary and sufficient measure of whether or not a given substance is a biomodulator, as defined herein.

TNP-Ficoll = test: in vivo antibody (PFC) response to T-independent antigen TNP-Ficoll; parameters: species or system mouse; settings: in words
Procedure: In this case both IgM and IgG hapten specific responses were recorded as well as non-antigen specific plaque responses (Ig-PFC) using a Protein A coated red blood cell target.
The TNP-Ficoll antigen is administered as the SRBC antigen was above, by i.p. injection and the response assessed by conjugating the TNP hapten directly to the SRBC target, thus obviating any potential "carrier" effect. […] In this case, a third experimental parameter has been added to the study, the production of non-specific immunoglobulin (Ig-PFC). This parameter provides information on the general status of the humoral response regardless of antigen specificity. The TNP-Ficoll antigen does elicit a modest Ig-PFC response but little if any IgG specific response. […] In this case there is a very large specific and non-specific augmentation.

HMGCoA reductase [2] = target: T1, HMGCoA reductase (Rattus norvegicus, UniProt P51639); test: HMG-CoA reductase inhibition, ED50; type: in vivo; parameters: from tissue; host or cells: whole animal (in vivo dose in μg/kg); settings: HMG-CoA reductase inhibitor
T1 sequence (P51639 1-887): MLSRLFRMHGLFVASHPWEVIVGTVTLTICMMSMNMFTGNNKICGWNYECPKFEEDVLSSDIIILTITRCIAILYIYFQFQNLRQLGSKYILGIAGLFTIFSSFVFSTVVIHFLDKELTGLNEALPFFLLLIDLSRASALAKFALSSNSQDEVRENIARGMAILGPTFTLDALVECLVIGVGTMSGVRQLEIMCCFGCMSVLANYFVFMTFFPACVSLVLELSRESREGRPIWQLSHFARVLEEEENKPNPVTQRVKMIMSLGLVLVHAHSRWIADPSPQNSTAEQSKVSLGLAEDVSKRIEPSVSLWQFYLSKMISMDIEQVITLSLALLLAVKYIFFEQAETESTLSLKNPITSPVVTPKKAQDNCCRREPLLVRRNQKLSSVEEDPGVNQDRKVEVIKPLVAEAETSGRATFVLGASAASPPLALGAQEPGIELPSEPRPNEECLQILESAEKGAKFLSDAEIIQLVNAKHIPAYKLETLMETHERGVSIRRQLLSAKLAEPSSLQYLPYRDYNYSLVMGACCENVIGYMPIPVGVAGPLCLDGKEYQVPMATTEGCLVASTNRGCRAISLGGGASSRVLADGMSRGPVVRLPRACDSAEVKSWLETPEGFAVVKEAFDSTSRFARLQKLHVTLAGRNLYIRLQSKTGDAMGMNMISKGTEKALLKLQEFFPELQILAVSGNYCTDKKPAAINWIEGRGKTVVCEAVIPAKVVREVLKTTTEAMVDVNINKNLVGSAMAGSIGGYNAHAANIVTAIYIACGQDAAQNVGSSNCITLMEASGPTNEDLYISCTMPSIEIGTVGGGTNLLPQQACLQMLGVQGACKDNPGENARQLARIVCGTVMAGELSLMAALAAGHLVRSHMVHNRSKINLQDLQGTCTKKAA

canine glioma cells [3] = test: adherence (ADH50%) of canine glioma cells; type: cell-based; settings: Canis lupus familiaris, Glioma cell
Procedure: (§1) Cytotoxicity was determined as a function of simple survival (T50%), adherence (ADH50%) and thymidine incorporation (I50%) of the cells.
(§2) Estimates of the 50% inhibitory concentrations of the various drugs tested on simple survival (T50%) and adherence (ADH50%) for canine glioma cells.

canine glioma cells [4] = test: thymidine incorporation (I50%) of canine glioma cells; type: cell-based; settings: Canis lupus familiaris, Glioma cell
Procedure: as §1
Estimates of the I50% of the various drugs tested on thymidine incorporation of canine glioma cells in culture.

[5] = tested on: human colon carcinoma cell line (LS-174); test: LS-174 generation times, Compound IIe'; type: cell-based
Procedure: The procedure of Example VA, above, was repeated except a human colon carcinoma cell line (LS-174) was used instead of the canine glioma cell line.
(§3) Mean of triplicate determinations. LS-174 cells (human colon carcinoma) were grown under conditions to promote exponential growth characteristics; 2×10^5 cells in a T-25 flask. The cells were harvested every 72 hours after the controls had reached approximately 85% confluency. The drug was added at the initiation of culture in DMSO, the control cultures had just DMSO. The drug concentration was adjusted with DMSO so that the final concentration of DMSO was always 0.5%.

[6] = tested on: human peripheral blood leukocytes (HPBLs); test: HPBL 3H-thymidine incorporation (proliferation); type: cell-based; parameters: reference not given here
Excerpt: C. […] This model is used to correlate the effects of biomodulators on the expression of immune response in vitro. The plaque assay disclosed in this reference is used for the determination of the effect of biomodulators on the specificity, class and subclass of individual clones.
A. Purification of PWM and separation of the differentiative and proliferative functions Pokeweed Mitogen (PWM) and three of its isomitogens, Pa-1 and Pa-5, which are primarily differentiative in nature, and Pa-2 which is primarily proliferative, were prepared according to the method of Waxdal, supra, except that the iso-mitogens were finally purified by isoelectric focusing.

canine glioma cells [7] = test: cytotoxicity, simple survival (T50%) of canine glioma cells; type: cell-based; settings: Canis lupus familiaris, Glioma cell, read-out: T 50% (50% inhibitory concentration on simple survival)
Procedure: as §1, §2

HMGCoA reductase [8] = target: T1, HMGCoA reductase; test: inhibition of rat liver HMGCoA reductase activity; type: biochemical; parameters: from tissue; host or cells: rat liver; settings: read-out: IC50 HMG-CoA reductase
Excerpt: reductase activity; data obtained according to Example IA.

canine glioma cells [9] = test: canine glioma generation times, Compound IIe'; type: cell-based
Procedure: The cells were harvested every 72 hours after the controls had reached 85% confluency. Generation time (Tg) was determined as the number of: hours required for the cell population to double.
as §3, with “Canine glioma” for “LS-174”, “cells” for “cells (human colon carcinoma)”, “2×10^5cells” for “2×10^5 cells”

Cc1c(/C=C/C(O)CC(O)CC(=O)O)ccc2c1C(O)CC(C)C2 (stereo not shown) [colletruncoic acid]
biomodulator activity [1]: has been shown to have biomodulator activity

Dextran
PFC response to TNP-Ficoll (TNP-Ficoll): some stimulatory effect; also recorded: marked cellular proliferation but little differentiative response

CC(C)OC(=O)C[C@H](O)C[C@@H](O)/C=C/c1c(C(C)C)nc(-c2ccccc2)n1-c1ccc(F)cc1 (relative stereo) [Compound IIe']
ED50 (HMGCoA reductase [2]): 0.025 mg/kg | IC50 (canine glioma cells [3]; 24 h): 0.075 µM | IC50 (canine glioma cells [3]; 72 h): 0.07 µM | IC50 (canine glioma cells [3]; 96 h): 0.075 µM | IC50 (canine glioma cells [4]; 24 h, first four lines, read-out: I50% (thymidine incorporation)): 0.05 µM | IC50 (canine glioma cells [4]; 48 h, first four lines, read-out: I50% (thymidine incorporation)): 0.075 µM | IC50 (canine glioma cells [4]; 48 h, second four lines, read-out: I50% (thymidine incorporation)): 0.075 µM | IC50 (canine glioma cells [4]; 72 h, first four lines, read-out: I50% (thymidine incorporation)): 0.08 µM | IC50 (canine glioma cells [4]; 96 h, first four lines, read-out: I50% (thymidine incorporation)): 0.05 µM | IC50 (canine glioma cells [4]; 96 h, second four lines, read-out: I50% (thymidine incorporation)): 0.05 µM | IC50 (canine glioma cells [4]; text to Table V, read-out: I50% (thymidine incorporation into DNA)): 0.05 to 0.08 µM | IC50 (canine glioma cells [4]; 24 h, second four lines, read-out: I50% (thymidine incorporation)): 0.1 µM | IC50 (canine glioma cells [4]; 72 h, second four lines, read-out: I50% (thymidine incorporation)): 0.03 µM | Tg ([5]; 10 nM, 72 h, control 26.5): 84.9 h | generation time after drug withdrawal ([5]; two passages, in words): the generation time returned to control levels | Proliferation ((3H) thymidine incorporation into DNA) [6]: 0.85 | IC50 (canine glioma cells [7]; 24 h): 0.75 µM | IC50 (canine glioma cells [7]; 72 h): 0.8 µM | IC50 (canine glioma cells [7]; 96 h): 0.9 µM | IC50 (HMGCoA reductase [8]): 0.003 µM | % Change of Tg (canine glioma cells [9]; 10 nM, 72 × 3 h): 180% | Tg (canine glioma cells [9]; 10 nM, 72 h, control 18.6): 25.3 h | contact inhibition (canine glioma cells [9]; in words): showed evidence of contact inhibition as the cells approached confluency
